Key:
[1] = target: T1, recombinant human CK2 (RRBB-holoenzyme) (Homo sapiens, UniProt P68400); assay: CK2 Kinase Assay (33P-ATP, substrate peptide RRRDDDSDDD); type: biochemical; conditions: final ATP concentration 15 μM, 10 min at 30° C.; read-out: protein kinase CK2 activity IC50
T1 construct: purchased Millipore
Protocol: CK2 Kinase Assay was conducted using the previously described protocol (Pierre F. et al; J. Med. Chem. 2011, 54, 635-654). The tested compounds in aqueous solution were added at a volume of 10 μL to a reaction mixture comprising 10 μL of assay dilution buffer (ADB; 20 mM MOPS, pH 7.2, 25 mM β-glycerol phosphate, 5 mM EGTA, 1 mM sodium orthovanadate, and 1 mM dithiothreitol), 10 μL of substrate peptide (RRRDDDSDDD, dissolved in ADB at a concentration of 1 mM), 10 μL of recombinant human CK2 (RRBB-holoenzyme, 25 ng dissolved in ADB; Millipore). Reactions were initiated by the addition of 10 μL of ATP solution (90% 75 mMMgCl2, 75 μM ATP (final ATP concentration: 15 μM) dissolved in ADB; 10% [γ-33P] ATP (stock 1 mCi/100 μL; 3000 Ci/mmol (Perkin-Elmer) and maintained for 10 min at 30° C. The reactions were quenched with 100 μL of 0.75% phosphoric acid and then transferred to and filtered through a phosphor cellulose filter plate (Millipore). After washing each well five times with 0.75% phosphoric acid, the plate was dried under vacuum for 5 min and, following the addition of 15 μL of scintillation fluid to each well, the residual radioactivity was measured using a Wallac […] counter. The IC50 values were derived from eight concentrations of test inhibitors.

H1299 (lung) = assay: MTT in vitro cytotoxic activity assay, H1299; type: cell-based; conditions: Homo sapiens, NCI-H1299, 96 h incubation, read-out: Cytotoxicity activity, H1299 (lung)
Protocol: (§1) Compounds 1-16 were screened for their in vitro cytotoxic behavior using a 3-(4,5-dimethyl-thiazol-2-yl)-2,5-diphenyltetrazolium bromide (MTT) assay against selected cancer human cell lines consisting of PC3 (prostate), HCT116 (colon), A375 (melanoma), H1299 (lung), MIAPaCa-2 (pancreas), HL60 (leukemia), MCF7 (breast), MDA-MB-231 (breast) (T. Mosmann, J. Immunol. Meth., 1983, 65, 55-63). The cells were cultured at 37° C. in RMPI1640 medium supplemented with 10% fetal bovine serum, 50 IU/mL penicillin, and 50 μg/mL streptomycin in a 5% CO2 incubator. All cells were sub-cultured 3 times/week by trypsinisation. Viable cells were seeded and allowed to adhere for 12 h before a test drug was added in 96-well plates at an initial density of 1.0×10^5 cells/mL. Tumor cell lines were separately exposed to various concentrations of the tested compounds followed by incubation at a temperature of 37° C. during 96 h inside a medium of fresh RMPI 1640. Cells were subsequently incubated at 37° C. using MTT at 0.5 mg/mL for 4 hours. After removal of supernatant, formazan crystals were dissolved in isopropanol and the optical density was measured at 570 nm. CX-4945 was used as a positive control.

HL60 (leukemia) = assay: MTT in vitro cytotoxic activity assay, HL60; type: cell-based; conditions: Homo sapiens, HL-60, 96 h incubation, read-out: Cytotoxicity activity, HL60 (leukemia)
Protocol: as §1

MCF7 (breast) = assay: MTT in vitro cytotoxic activity assay, MCF7; type: cell-based; conditions: Homo sapiens, 96 h incubation, read-out: Cytotoxicity activity, MCF7 (breast)
Protocol: as §1

A375 (melanoma) = assay: MTT in vitro cytotoxic activity assay, A375; type: cell-based; conditions: Homo sapiens, A-375, 96 h incubation, read-out: Cytotoxicity activity, A375 (melanoma)
Protocol: as §1

MDA-MB-231 (breast) = assay: MTT in vitro cytotoxic activity assay, MDA-MB-231; type: cell-based; conditions: Homo sapiens, 96 h incubation, read-out: Cytotoxicity activity, MDA-MB-231 (breast)
Protocol: as §1

[2] = test system: various human cancer cell lines; assay: MTT in vitro cytotoxic activity assay, panel of human cancer cell lines; type: cell-based; conditions: MCF7, MDA-MB-231, H1299, PC3, HCT116, A375, MIAPaCa-2, HL60
Protocol: as §1

HCT116 (colon) = assay: MTT in vitro cytotoxic activity assay, HCT116; type: cell-based; conditions: Homo sapiens, HCT-116, 96 h incubation, read-out: Cytotoxicity activity, HCT116 (colon)
Protocol: as §1

MIAPaCa-2 (pancreas) = assay: MTT in vitro cytotoxic activity assay, MIAPaCa-2; type: cell-based; conditions: Homo sapiens, MIA PaCa-2, 96 h incubation, read-out: Cytotoxicity activity, MIAPaCa-2 (pancreas)
Protocol: as §1

PC3 (prostate) = assay: MTT in vitro cytotoxic activity assay, PC3; type: cell-based; conditions: Homo sapiens, 96 h incubation, read-out: Cytotoxicity activity, PC3 (prostate)
Protocol: as §1

T1 sequence (P68400 whole entry): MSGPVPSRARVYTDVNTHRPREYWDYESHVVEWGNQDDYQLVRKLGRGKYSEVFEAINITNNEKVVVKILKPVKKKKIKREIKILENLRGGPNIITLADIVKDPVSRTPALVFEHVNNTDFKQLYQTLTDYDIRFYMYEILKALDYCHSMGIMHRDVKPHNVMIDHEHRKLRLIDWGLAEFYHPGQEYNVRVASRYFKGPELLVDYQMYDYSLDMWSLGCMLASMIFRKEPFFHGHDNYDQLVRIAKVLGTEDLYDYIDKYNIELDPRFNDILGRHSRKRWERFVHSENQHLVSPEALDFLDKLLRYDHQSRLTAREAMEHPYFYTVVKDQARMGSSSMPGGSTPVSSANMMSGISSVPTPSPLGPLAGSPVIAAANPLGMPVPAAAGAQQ
T1 sequence (P67870 whole entry partner): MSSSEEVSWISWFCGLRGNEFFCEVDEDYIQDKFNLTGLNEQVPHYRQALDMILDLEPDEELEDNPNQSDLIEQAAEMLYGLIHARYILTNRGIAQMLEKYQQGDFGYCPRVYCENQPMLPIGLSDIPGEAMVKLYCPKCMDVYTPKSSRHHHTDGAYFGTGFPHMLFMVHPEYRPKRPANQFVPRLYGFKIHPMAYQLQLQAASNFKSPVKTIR

IC50 [1]: 38 nM
Structure (SMILES): O=C1Nc2c(nc(Nc3cccc(Cl)c3)c3cc(C(=O)O)ccc23)C1=O [Compound 1, 5-((3-chlorophenyl)amino)-2,3-dioxo-2,3-dihydro-1H-pyrrolo[3,2-c]isoquinoline-7-carboxylic acid]
IC50 (H1299 (lung)): 1700 nM | IC50 (HL60 (leukemia)): 3900 nM | IC50 (MCF7 (breast)): 5400 nM | IC50 (A375 (melanoma)): 3100 nM | IC50 (MDA-MB-231 (breast)): 3800 nM | in vitro anti-proliferative / anticancer activity against human cancer cell lines (in words) [2]: promising in vitro anti-proliferative activity | IC50 (HCT116 (colon)): 1500 nM | IC50 (MIAPaCa-2 (pancreas)): 1100 nM | IC50 (PC3 (prostate)): 1100 nM
